Experimental data as given in PMC10335629 (Journal of the American Chemical Society, 2023).
Like-named read-outs stand apart in the source and are kept apart here. Values belong to the substance of their own block, whether it stands above or below them. No end group written: not given here.

What was measured:
nLuc-GLP-2R [1] = target: nLuc-GLP-2R (UniProt O95838)
nLuc-GLP-2R [2] = target: nLuc-GLP-2R (UniProt O95838); test: FRET or BRET
GLP-2R = target: T1, GLP-2R (Homo sapiens, UniProt O95838); test: GLP-2R activation: cAMP production, GloSensor HEK293 cells
T1 sequence (O95838 1-553): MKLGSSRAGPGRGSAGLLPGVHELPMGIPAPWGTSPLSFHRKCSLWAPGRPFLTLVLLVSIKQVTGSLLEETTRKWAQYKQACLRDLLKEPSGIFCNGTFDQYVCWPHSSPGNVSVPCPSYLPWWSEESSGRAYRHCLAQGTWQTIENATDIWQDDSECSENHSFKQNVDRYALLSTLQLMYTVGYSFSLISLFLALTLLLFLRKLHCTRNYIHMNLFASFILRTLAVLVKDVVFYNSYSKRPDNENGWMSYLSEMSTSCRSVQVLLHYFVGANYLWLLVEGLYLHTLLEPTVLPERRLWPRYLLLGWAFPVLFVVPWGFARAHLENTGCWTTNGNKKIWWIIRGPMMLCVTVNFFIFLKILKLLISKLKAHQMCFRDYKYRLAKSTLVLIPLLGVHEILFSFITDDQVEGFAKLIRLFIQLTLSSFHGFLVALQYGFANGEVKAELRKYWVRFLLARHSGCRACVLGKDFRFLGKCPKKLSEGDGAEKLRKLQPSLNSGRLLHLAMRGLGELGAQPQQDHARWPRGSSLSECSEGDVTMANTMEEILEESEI

nLuc-GLP-2R [3] = target: T2, nLuc-GLP-2R (Homo sapiens, UniProt O95838); test: nLuc-GLP-2R competition binding
T2 sequence (O95838 1-553): T1 sequence (O95838 1-553)

GLP-1R = GLP-1R (Homo sapiens, UniProt P43220); test: GLP-1R activation: cAMP production, GloSensor HEK293 cells; type: cell-based
GLP-1R, sequence (P43220 24-463): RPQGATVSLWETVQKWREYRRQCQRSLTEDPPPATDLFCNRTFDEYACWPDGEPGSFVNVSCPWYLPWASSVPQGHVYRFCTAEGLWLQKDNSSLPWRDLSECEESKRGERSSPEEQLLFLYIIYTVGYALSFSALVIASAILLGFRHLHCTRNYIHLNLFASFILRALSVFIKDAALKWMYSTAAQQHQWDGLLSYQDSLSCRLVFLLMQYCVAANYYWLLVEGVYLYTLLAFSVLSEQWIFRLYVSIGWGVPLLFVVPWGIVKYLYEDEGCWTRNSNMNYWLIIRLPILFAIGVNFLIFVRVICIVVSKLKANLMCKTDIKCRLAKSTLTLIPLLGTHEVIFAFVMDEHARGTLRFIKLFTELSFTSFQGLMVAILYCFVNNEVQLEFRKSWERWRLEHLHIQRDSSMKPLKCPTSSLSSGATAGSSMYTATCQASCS

nLuc-GLP-1R = nLuc-GLP-1R (Homo sapiens, UniProt P43220); test: nLuc-GLP-1R competition binding
nLuc-GLP-1R, sequence (P43220 24-463): as above

nLuc-GLP-2R [4] = target: nLuc-GLP-2R (UniProt O95838); remark: listed apart in the source

GLP-2R cAMP Production, % Max (normalized to GLP-2) (nLuc-GLP-2R [1]): 99% | GLP-2R cAMP Production, EC50 (native GLP-2R) (nLuc-GLP-2R [1]): 0.086 nM | IC50 (nLuc-GLP-2R [2]): 25 nM
Substance: GLP-2 (peptide)

effect of altering the C-terminus to a primary amide on GLP-2R activation (GLP-2R; natural sequence, compared with GLP-2, Figure S1): no effect on GLP-2R activation
Substance: GLP-2-NH2: C-terminal amide analogue of the hormone GLP-2

Emax (GLP-2R; HEK293, read-out: GLP-2R cAMP Production % Max): 98 ± 1% | lower affinity for nLuc-GLP-2R relative to GLP-2 (nLuc-GLP-2R [3]; competition BRET, Figure S2): ~ 10 fold | GLP-1R cAMP Production % Max (GLP-1R; maximal response normalized relative to GLE, ≥4 independent experiments, ± S.E.M., NR = No Response): 95 ± 2%
Substance: HGEGTFSSELATILDALAARDFIAWLIATKITDKKKKKK-NH2 (C-terminus assumed) [GLE, glepaglutide]

IC50 (nLuc-GLP-1R): 290 nM | EC50 (GLP-2R): 0.44 nM | IC50 (nLuc-GLP-2R [3]): 170 nM | EC50 (GLP-1R): 5.1 nM
Substance: HGEGTFSSELATILDALAARDFIAWLIATKITDKKKKKK-NH2 [GLE, glepaglutide]

GLP-2R cAMP Production, EC50 (native GLP-2R) (nLuc-GLP-2R [4]): 0.44 nM
Substance: glepaglutide (GLE) (peptide)
